Where “and” joins values, the source holds several entries; their conditions need not be identical. Equal entries are not always repeated.

For one assay, the species on record is Rattus norvegicus. The assay is described as follows: Displacement of [3H]flunitrazepam from GABAA benzodiazepine receptor in rat brain membrane at 10 uM. Format: cell membranes. In general terms: Loss of bound radioactivity is the signal in a displacement assay; it reports binding, not function.
As for `Cc1cc(=O)n2c(n1)CC/N=C(/c1ccccc1)c1cc(Cl)ccc1-2`, the Activity is -18%.

`Cc1cc(=O)n2c(n1)CN=C(c1ccccc1)c1cc(Cl)ccc1-2`: the Activity amounted to 17%.

As to `Cc1cc(=O)nc2n1-c1ccc(Cl)cc1/C(c1ccccc1)=N\CC2`, the Activity is 24%.

Target in the next assay: not listed separately
The assay is described as follows: Displacement of [3H]flunitrazepam from GABAA benzodiazepine receptor in rat brain membrane. Format: cell membranes.
Take `Clc1ccc2c(c1)C(c1ccccc1)=NCc1nncn1-2` [ESTAZOLAM]: the half-maximal inhibitory concentration (IC50) (commonly the midpoint of a concentration-inhibition curve) was determined as 46.6 nM.

With `Cc1cc(=O)nc2n1-c1ccc(Cl)cc1C(c1ccccc1Cl)=NC2`, the IC50 was 8.77 nM and 1.5 nM and 4.35 nM.

For the molecule `Cc1cc(=O)n2c(n1)CN=C(c1ccccc1)c1cc(Cl)ccc1-2`, the IC50 was 93.6 nM and 394 nM.

In turn, `CN1C(=O)CN=C(c2ccccc2)c2cc(Cl)ccc21` [DIAZEPAM] came in with an IC50 of 21.2 nM.

`Cc1nnc2n1-c1ccc(Cl)cc1C(c1ccccc1Cl)=NC2` [TRIAZOLAM] gave an IC50 of 1.54 nM.

These data come from ChEMBL document CHEMBL1142485, “Axial chirality and affinity at the GABA(A) receptor of pyrimido[1,2-a][1,4]benzodiazepines and related compounds” (Bioorg Med Chem, 2008).
